Patent publication US20060110449A1, “Pharmaceutical composition” (priority 2004, published 2006)

Assays:
[1] = system: subjects with Seasonal Allergic Rhinitis (SAR) and Post-Nasal Drip; test: Phase II randomized, double-blind, placebo controlled study: symptom scores (post nasal drip, anterior rhinorrhea, total symptom score); settings: for least square mean change from baseline in the average AM/PM PRIOR post nasal drip score, percent / least square mean change from baseline in the average AM/PM PRIOR post nasal drip score: 7-day Treatment Phase, Oxy 5 mg BID, combinations given concurrently BID; for least square mean change from baseline in the average AM/PM PRIOR post nasal drip score: all randomized subjects; for anterior rhinorrhea treatment difference vs. placebo: key secondary efficacy variable, BID, DL 2.5 mg, Oxy 5 mg
Source text: (§1) The total target enrollment was 500 subjects with 100 per arm. The study consisted of a 7-day Treatment Phase.
The primary efficacy variable was the change from baseline in the average AM/PM PRIOR post nasal drip score over the Treatment Phase of 7 days. The analysis was based on a main effect analysis of variance (ANOVA), which extracted sources of variation due to treatment and center. […] Pairwise treatment comparisons were examined using the 95% confidence intervals of the treatment differences at an unadjusted 2-sided alpha-level of 0.05.
After the examination of post nasal drip, the key secondary efficacy variable, anterior rhinorrhea, was examined in the same manner.
There were 38 subjects excluded from the efficacy evaluable subset. A majority of these subjects were excluded due to insufficient efficacy data. Determination of evaluability was perfomed prior to unblinding the database. Though the treatment duration specified in the protocol was 7 days, about 70% of subjects also completed their diary on the AM of Day 8 since the final office visit was scheduled on that day. Therefore, the AM Day 8 data were included in the calculation of the one-week average.
The primary efficacy variable was the change from baseline in the average AM/PM PRIOR post nasal drip score over the Treatment Phase of 7 days.

[2] = DL 2.5 mg BID, Oxy 5 mg BID, combinations BID; 7 days
Source text: as §1

[3] = system: symptoms most closely associated with chronic nasal congestion (e.g., stuffy nose); settings: reportedly; cited from earlier work
[4] = system: secretions of natural tear components; settings: preclinical testing, reportedly; cited from earlier work

For `Clc1ccc2c(c1)CCc1cccnc1C2=C1CCNCC1` [DL, desloratadine], the “least square mean change from baseline in the average AM/PM PRIOR post nasal drip score, percent” value ([1]; DL 2.5 mg BID) was −24.8%, the “least square mean change from baseline in the average AM/PM PRIOR post nasal drip score” value ([1]; DL 2.5 mg BID) was −0.68 and the “total symptom score excluding post nasal drip, treatment difference vs. placebo” value ([1]; DL 2.5 mg BID, 7 days) was 0.71 point. The “anterior rhinorrhea treatment difference vs. placebo” value ([1]; 7 days) was 0.03 points.
In the case of `CCN(CC)CC#CCOC(=O)C(O)(c1ccccc1)C1CCCCC1` (centres unmarked) [Oxy, Oxybutynin], the “discontinuation rate from the treatment phase” value [2] is reported as 5.56%, the “percentage of subjects reporting any treatment emergent adverse events” value [2] is reported as 30.6% and the “percentage of subjects reporting dry mouth” value [2] is reported as 13.9%. For the same compound, the “subjects reporting any treatment emergent adverse events” value [2] was 33 subjects, the “subjects reporting dry mouth” value [2] was 15 subjects and the “least square mean change from baseline in the average AM/PM PRIOR post nasal drip score, percent” value ([1]; DL 2.5 mg BID) was −17.8%. The “least square mean change from baseline in the average AM/PM PRIOR post nasal drip score” value ([1]; DL 2.5 mg BID) was −0.49 and the “anterior rhinorrhea treatment difference vs. placebo” value ([1]; 7 days) was 0.04 points.
For `Oc1cccc(Nc2ncc(F)c(Nc3cccc(O)c3)n2)c1` [R112], the “absolute difference over placebo” value [3] is given as 9%, the “improvement from baseline measurements (prior to drug initiation)” value [3] is given as “up to 38%” and the “relative improvement over placebo” value [3] is given as “greater than 20%”. The “symptoms most closely associated with chronic nasal congestion (e.g., stuffy nose), over placebo” value [3] was “improved”.
In the case of `O=c1ccn([C@@H]2O[C@H](COP(=O)(O)OP(=O)(O)OP(=O)(O)OP(=O)(O)OC[C@H]3O[C@@H](n4ccc(=O)[nH]c4=O)[C@H](O)[C@@H]3O)[C@@H](O)[C@H]2O)c(=O)[nH]1` [diquafosol, Diquafosol tetrasodium], the “secretions of natural tear components” value [4] is given as “increased”.
